Results published in ChEMBL document CHEMBL1134492, “Phenanthroindolizidine alkaloids as cytotoxic substances in a Danaid butterfly, Ideopsis similis, against human cancer cells” (J Med Chem, 2001).
Converted amounts (≈) assume the structure as drawn.

Assays:
Type in all cases: functional, cell-based
Conditions in all cases: Homo sapiens
DLD-1 = assay: Inhibitory concentration against DLD-1 (colon cancer) cell line
HeLa = assay: Inhibitory concentration against HeLa (cervical cancer) cell line
A549 = assay: Inhibitory concentration against A549 (lung cancer) cell line
K562 = assay: Inhibitory concentration against K562 (leukemia) cell line

For `COc1cc2c3c(c4ccc(O)c(OC)c4c2cc1OC)[C@H](O)[C@@H]1CCCN1C3`, the IC50 (DLD-1) was 0.8 ng/mL (≈ 2.02 nM), the IC50 (HeLa) was 0.1 ng/mL (≈ 0.253 nM) and the IC50 (A549) was 0.5 ng/mL (≈ 1.26 nM). For the same compound, the IC50 (K562) was 0.5 ng/mL (≈ 1.26 nM).
`COc1cc2c3c(c4ccc(O)cc4c2cc1OC)[C@H](O)[C@@H]1CCCN1C3` [TYLOPHORIDICINE E] gave an IC50 (DLD-1) of 0.5 ng/mL (≈ 1.37 nM), an IC50 (HeLa) of 0.8 ng/mL (≈ 2.19 nM) and an IC50 (A549) of 0.4 ng/mL (≈ 1.09 nM). For the same compound, the IC50 (K562) was 0.4 ng/mL (≈ 1.09 nM).
